What was measured:
[1] = molecular target: Human sodium/glucose co-transporter type 1 (SGLT1) (Homo sapiens (Human), UniProt P13866); assay: In vitro human SGLT1 inhibition assay (14C-AMG uptake); format: cell-based; parameters: key to SGLT1 (human SGLT1 IC50): ***: a value less than 0.01 μM; **: a value less than 0.1 μM; *: a value less than 1 μM; —: a value not measured or exceeding μM; conditions: HEK293 cells expressing human HA-SGLT1, 14C-AMG uptake
Summary of the method: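 HEK293 cells stably expressing human HA-tagged SGLT1 (30,000/well, overnight) were washed into Na+-containing uptake buffer (140 mM NaCl, HEPES/Tris, 1 mg/mL BSA, pH 7.3). Cells then received compound plus 100 nCi 14C-AMG for 1–2 h at 37 °C; after washing, AMG uptake was quantified by scintillation counting.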

[2] = molecular target: Human sodium/glucose co-transporter type 2 (SGLT2) (Homo sapiens (Human), UniProt P31639); assay: In vitro human SGLT2 inhibition assay (14C-AMG uptake); format: cell-based; conditions: HEK293 cells expressing human HA-SGLT2, 14C-AMG uptake
Sequence of Human sodium/glucose co-transporter type 2 (SGLT2) (P31639 whole entry): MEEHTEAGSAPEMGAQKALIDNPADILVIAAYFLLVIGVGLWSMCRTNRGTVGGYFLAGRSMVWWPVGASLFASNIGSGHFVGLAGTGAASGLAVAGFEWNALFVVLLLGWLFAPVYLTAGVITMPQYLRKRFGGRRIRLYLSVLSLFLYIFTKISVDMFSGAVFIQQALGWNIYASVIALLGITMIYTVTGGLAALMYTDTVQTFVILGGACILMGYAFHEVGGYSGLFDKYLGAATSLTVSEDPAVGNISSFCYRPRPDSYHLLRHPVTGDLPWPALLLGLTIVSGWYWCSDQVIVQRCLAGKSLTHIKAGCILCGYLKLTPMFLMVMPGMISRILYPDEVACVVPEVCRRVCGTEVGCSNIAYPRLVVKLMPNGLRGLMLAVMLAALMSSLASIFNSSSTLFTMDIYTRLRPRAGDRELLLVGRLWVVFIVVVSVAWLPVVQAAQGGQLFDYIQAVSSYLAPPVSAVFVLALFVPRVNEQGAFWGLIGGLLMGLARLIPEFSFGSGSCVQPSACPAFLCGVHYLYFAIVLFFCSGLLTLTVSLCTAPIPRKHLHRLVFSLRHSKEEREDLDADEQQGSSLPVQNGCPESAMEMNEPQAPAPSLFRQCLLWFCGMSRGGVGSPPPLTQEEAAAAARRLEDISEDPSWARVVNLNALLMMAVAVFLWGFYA
Summary of the method: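 HEK293 cells stably expressing HA-tagged human SGLT2, seeded overnight, washed into Na+-containing HEPES/Tris uptake buffer with 1 mg/mL BSA, pH 7.3. Compound added, then 14C-AMG (100 nCi); 1-2 h at 37 °C, 5% CO2. Washed cells counted by scintillation for 14C-AMG uptake.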

Sequence of Human sodium/glucose co-transporter type 1 (SGLT1) (P13866 whole entry): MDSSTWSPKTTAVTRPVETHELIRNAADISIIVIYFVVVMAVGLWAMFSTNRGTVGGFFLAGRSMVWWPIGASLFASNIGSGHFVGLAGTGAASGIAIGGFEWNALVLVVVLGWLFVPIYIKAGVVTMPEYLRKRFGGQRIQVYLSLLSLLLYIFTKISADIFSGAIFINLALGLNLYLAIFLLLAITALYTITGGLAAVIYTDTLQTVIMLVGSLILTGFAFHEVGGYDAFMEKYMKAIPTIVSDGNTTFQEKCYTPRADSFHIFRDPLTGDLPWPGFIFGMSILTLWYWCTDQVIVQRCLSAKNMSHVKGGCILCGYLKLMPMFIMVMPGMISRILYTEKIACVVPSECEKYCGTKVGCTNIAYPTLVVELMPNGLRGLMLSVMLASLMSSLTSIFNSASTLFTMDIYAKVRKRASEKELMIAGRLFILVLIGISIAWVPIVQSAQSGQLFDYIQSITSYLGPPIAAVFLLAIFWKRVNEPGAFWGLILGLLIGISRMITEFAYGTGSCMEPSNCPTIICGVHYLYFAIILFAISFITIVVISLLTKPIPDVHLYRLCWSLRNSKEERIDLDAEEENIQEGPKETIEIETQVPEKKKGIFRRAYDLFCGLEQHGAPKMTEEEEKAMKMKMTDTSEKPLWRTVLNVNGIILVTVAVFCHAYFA

SMILES	IC50 [1] [nM]	IC50 [2] [nM]	SGLT1 (human SGLT1 IC50) [1]
CS[C@H]1O[C@@H](c2ccc(Cl)c(Cc3ccc(OCCCC(=O)NC(C)(C)C(=O)O)cc3)c2)[C@H](O)[C@@H](O)[C@@H]1O [2-(4-(4-(2-chloro-5-((2S,3R,4R,5S,6R)-3,4,5-trihydroxy-6-(methylthio)tetrahydro-2H-pyran-2-yl)benzyl)phenoxy)butanamido)-2-methylpropanoic acid]		< 100	—
CS[C@H]1O[C@@H](c2ccc(C)c(Cc3ccc(CCCCCNC(=O)NC(C)(C)CO)cc3)c2)[C@H](O)[C@@H](O)[C@@H]1O [1-(1-hydroxy-2-methylpropan-2-yl)-3-(5-(4-(2-methyl-5-((2S,3R,4R,5S,6R)-3,4,5-trihydroxy-6-(methylthio)tetrahydro-2H-pyran-2-yl)benzyl)phenyl)pentyl)urea]	< 100	< 10	
CCN(CC)CCOc1ccc(Cc2cc([C@@H]3O[C@H](SC)[C@@H](O)[C@H](O)[C@H]3O)ccc2Cl)cc1 [(2S,3R,4R,5S,6R)-2-(4-chloro-3-(4-(2-(diethylamino)ethoxy)benzyl)phenyl)-6-(methylthio)tetrahydro-2H-pyran-3,4,5-triol]	< 10	< 10	
CS[C@H]1O[C@@H](c2ccc(C)c(Cc3ccc(CCCC(=O)NC(CO)(CO)CO)cc3)c2)[C@H](O)[C@@H](O)[C@@H]1O [N-(1,3-dihydroxy-2-(hydroxymethyl)propan-2-yl)-4-(4-(2-methyl-5-((2S,3R,4R,5S,6R)-3,4,5-trihydroxy-6-(methylthio)tetrahydro-2H-pyran-2-yl)benzyl)phenyl)butanamide]	< 10	< 10	
CS[C@H]1O[C@@H](c2ccc(C)c(Cc3ccc(CCCCCNCc4ccccc4)cc3)c2)[C@H](O)[C@@H](O)[C@@H]1O [(2S,3R,4R,5S,6R)-2-(3-(4-(5-(benzylamino)pentyl)benzyl)-4-methylphenyl)-6-(methylthio)tetrahydro-2H-pyran-3,4,5-triol]	< 100	< 10	
CS[C@H]1O[C@@H](c2ccc(C)c(Cc3ccc(CCCCC(=O)NC(C)(C)C(=O)N4CCN(C)CC4)cc3)c2)[C@H](O)[C@@H](O)[C@@H]1O [N-(2-methyl-1-(4-methylpiperazin-1-yl)-1-oxopropan-2-yl)-5-(4-(2-methyl-5-((2S,3R,4R,5S,6R)-3,4,5-trihydroxy-6-(methylthio)tetrahydro-2H-pyran-2-yl)benzyl)phenyl)pentanamide]	< 10	< 10	
CS[C@H]1O[C@@H](c2ccc(C)c(Cc3ccc(CCCC(=O)NC(C)(C)C(=O)NC4CCN(C(=O)OC(C)(C)C)CC4)cc3)c2)[C@H](O)[C@@H](O)[C@@H]1O [tert-butyl 4-(2-methyl-2-(4-(4-(2-methyl-5-((2S,3R,4R,5S,6R)-3,4,5-trihydroxy-6-(methylthio)tetrahydro-2H-pyran-2-yl)benzyl)phenyl)butanamido)propanamido)piperidine-1-carboxylate]	< 10	< 10	
CS[C@H]1O[C@@H](c2ccc(C)c(Cc3ccc(CCCCCC(=O)NC(CO)(CO)CO)cc3)c2)[C@H](O)[C@@H](O)[C@@H]1O [N-(1,3-dihydroxy-2-(hydroxymethyl)propan-2-yl)-6-(4-(2-methyl-5-((2S,3R,4R,5S,6R)-3,4,5-trihydroxy-6-(methylthio)tetrahydro-2H-pyran-2-yl)benzyl)phenyl)hexanamide]	< 100	< 10	
CS[C@H]1O[C@@H](c2ccc(C)c(Cc3ccc(CCCC(=O)N4CCN(C)CC4)cc3)c2)[C@H](O)[C@@H](O)[C@@H]1O [4-(4-(2-methyl-5-((2S,3R,4R,5S,6R)-3,4,5-trihydroxy-6-(methylthio)tetrahydro-2H-pyran-2-yl)benzyl)phenyl)-1-(4-methylpiperazin-1-yl)butan-1-one]	< 100	< 10	
CS[C@H]1O[C@@H](c2ccc(C)c(Cc3ccc(CCCC(=O)NC(C)(C)C(=O)N(C)CCN(C)C)cc3)c2)[C@H](O)[C@@H](O)[C@@H]1O [N-(1-((2-(dimethylamino)ethyl)(methyl)amino)-2-methyl-1-oxopropan-2-yl)-4-(4-(2-methyl-5-((2S,3R,4R,5S,6R)-3,4,5-trihydroxy-6-(methylthio)tetrahydro-2H-pyran-2-yl)benzyl)phenyl)butanamide]	< 10	< 10	
COCCOCCOc1ccc(Cc2cc([C@@H]3O[C@H](SC)[C@@H](O)[C@H](O)[C@H]3O)ccc2C)cc1 [(2S,3R,4R,5S,6R)-2-(3-(4-(2-(2-methoxyethoxy)ethoxy)benzyl)-4-methylphenyl)-6-(methylthio)tetrahydro-2H-pyran-3,4,5-triol]	< 10	< 10	

Results, then the compound that gave them:

IC50 [1] [nM]	IC50 [2] [nM]	SGLT1 (human SGLT1 IC50) [1]	SMILES
< 10	< 10		CS[C@H]1O[C@@H](c2ccc(C)c(Cc3ccc(CCCCNC(CO)(CO)CO)cc3)c2)[C@H](O)[C@@H](O)[C@@H]1O [(2S,3R,4R,5S,6R)-2-(3-(4-(4-((1,3-dihydroxy-2-(hydroxymethyl)propan-2-yl)amino)butyl)benzyl)-4-methylphenyl)-6-(methylthio)tetrahydro-2H-pyran-3,4,5-triol]
< 10	< 10		CS[C@H]1O[C@@H](c2ccc(C)c(Cc3ccc(CCCCN)cc3)c2)[C@H](O)[C@@H](O)[C@@H]1O [(2S,3R,4R,5S,6R)-2-(3-(4-(4-aminobutyl)benzyl)-4-methylphenyl)-6-(methylthio)tetrahydro-2H-pyran-3,4,5-triol]
< 10	< 10		CS[C@H]1O[C@@H](c2ccc(C)c(Cc3ccc(CCCC(=O)NC4(C(=O)N5CCN(C)CC5)CC4)cc3)c2)[C@H](O)[C@@H](O)[C@@H]1O [4-(4-(2-methyl-5-((2S,3R,4R,5S,6R)-3,4,5-trihydroxy-6-(methylthio)tetrahydro-2H-pyran-2-yl)benzyl)phenyl)-N-(1-(4-methylpiperazine-1-carbonyl)cyclopropyl)butanamide]
< 10	< 10		CS[C@H]1O[C@@H](c2ccc(C)c(Cc3ccc(CCCC(=O)NC(C)(C)C(=O)NC4CCNCC4)cc3)c2)[C@H](O)[C@@H](O)[C@@H]1O [N-(2-methyl-1-oxo-1-(piperidin-4-ylamino)propan-2-yl)-4-(4-(2-methyl-5-((2S,3R,4R,5S,6R)-3,4,5-trihydroxy-6-(methylthio)tetrahydro-2H-pyran-2-yl)benzyl)phenyl)butanamide]
< 10	< 10		CS[C@H]1O[C@@H](c2ccc(C)c(Cc3ccc(CCCCNC(=O)NC(CO)(CO)CO)cc3)c2)[C@H](O)[C@@H](O)[C@@H]1O [1-(1,3-dihydroxy-2-(hydroxymethyl)propan-2-yl)-3-(4-(4-(2-methyl-5-((2S,3R,4R,5S,6R)-3,4,5-trihydroxy-6-(methylthio)tetrahydro-2H-pyran-2-yl)benzyl)phenyl)butyl)urea]
< 100	< 10		CS[C@H]1O[C@@H](c2ccc(C)c(Cc3ccc(OCCCC(=O)N[C@@H](C)C(N)=O)cc3)c2)[C@H](O)[C@@H](O)[C@@H]1O [N-((S)-1-amino-1-oxopropan-2-yl)-4-(4-(2-methyl-5-((2S,3R,4R,5S,6R)-3,4,5-trihydroxy-6-(methylthio)tetrahydro-2H-pyran-2-yl)benzyl)phenoxy)butanamide]
< 10	< 10		CS[C@H]1O[C@@H](c2ccc(C)c(Cc3ccc(CCCC(=O)NC(C)(C)C(=O)N4CCN(C)CC4)cc3)c2)[C@H](O)[C@@H](O)[C@@H]1O [N-(2-methyl-1-(4-methylpiperazin-1-yl)-1-oxopropan-2-yl)-4-(4-(2-methyl-5-((2S,3R,4R,5S,6R)-3,4,5-trihydroxy-6-(methylthio)tetrahydro-2H-pyran-2-yl)benzyl)phenyl)butanamide]
< 100	< 10		CS[C@H]1O[C@@H](c2ccc(C)c(Cc3ccc(OCC(=O)NC(CO)(CO)CO)cc3)c2)[C@H](O)[C@@H](O)[C@@H]1O [N-(1,3-dihydroxy-2-(hydroxymethyl)propan-2-yl)-2-(4-(2-methyl-5-((2S,3R,4R,5S,6R)-3,4,5-trihydroxy-6-(methylthio)tetrahydro-2H-pyran-2-yl)benzyl)phenoxy)acetamide]
< 10	< 10		CS[C@H]1O[C@@H](c2ccc(C)c(Cc3ccc(/C=C/CCC(=O)NC(C)(C)C(=O)N4CCN(C)CC4)cc3)c2)[C@H](O)[C@@H](O)[C@@H]1O [(E)-N-(2-methyl-1-(4-methylpiperazin-1-yl)-1-oxopropan-2-yl)-5-(4-(2-methyl-5-((2S,3R,4R,5S,6R)-3,4,5-trihydroxy-6-(methylthio)tetrahydro-2H-pyran-2-yl)benzyl)phenyl)pent-4-enamide]
< 100	< 10		CS[C@H]1O[C@@H](c2ccc(Cl)c(Cc3ccc(OCCN)cc3)c2)[C@H](O)[C@@H](O)[C@@H]1O [(2S,3R,4R,5S,6R)-2-(3-(4-(2-aminoethoxy)benzyl)-4-chlorophenyl-6-(methylthio)tetrahydro-2H-pyran-3,4,5-triol]
< 100	< 10		CS[C@H]1O[C@@H](c2ccc(C)c(Cc3ccc(OCCCC(=O)NCC(N)=O)cc3)c2)[C@H](O)[C@@H](O)[C@@H]1O [N-(2-amino-2-oxoethyl)-4-(4-(2-methyl-5-((2S,3R,4R,5S,6R)-3,4,5-trihydroxy-6-(methylthio)tetrahydro-2H-pyran-2-yl)benzyl)phenoxy)butanamide]
